{"source": "the SangsterLogP compilation", "data": [{"experiment": "method code SF, from DOI: 10.1016/j.ejps.2004.08.007, PMID: 15567286", "details": "not given", "values": [{"smiles": "O=Cc1ccc(C(=O)O)cc1", "logP": 1.52}]}, {"experiment": "method code SF-HPLC, from DOI: 10.1016/j.ejps.2004.08.007, PMID: 15567286", "details": "pH 7.4", "values": [{"smiles": "COC(=O)Nc1cc[nH]c(=O)n1", "logD": -0.55}, {"smiles": "CCOC(=O)Nc1cc[nH]c(=O)n1", "logD": -0.09}, {"smiles": "O=C(Nc1cc[nH]c(=O)n1)OC12CC3CC(CC(C3)C1)C2", "logD": 2.9}, {"smiles": "CCCCCCOC(=O)Nc1cc[nH]c(=O)n1", "logD": 2.3}, {"smiles": "O=C(Nc1cc[nH]c(=O)n1)OCc1ccccc1", "logD": 1.3}, {"smiles": "CC(C)COC(=O)Nc1cc[nH]c(=O)n1", "logD": 1.1}, {"smiles": "CC(C)(C)COC(=O)Nc1cc[nH]c(=O)n1", "logD": 1.5}, {"smiles": "CCCCOC(=O)Nc1cc[nH]c(=O)n1", "logD": 1.1}, {"smiles": "CCCCCCCCOC(=O)Nc1cc[nH]c(=O)n1", "logD": 3.3}]}]}
